Legend:
HCT-116 colon carcinoma = assay: Cell proliferation inhibition assay (14C-thymidine incorporation), HCT116; type: cell-based; details: Homo sapiens
From the text: (§1) The ability of a test compound to inhibit unregulated cell proliferation may be determined by measuring incorporation of ^14C-labelled thymidine into newly synthesized DNA within cell lines derived from carcinomas originating from several tissues. Accordingly, the effect of a test compound on proliferation of cells with a variety of phenotypes may be determined.
(§2) Carcinoma cell lines used include the HeLa cervical adenocarcinoma from the American Type Culture Collection (ATCC Cat. #CCL2), A375 malignant melanoma (ATCC Cat. #CRL-1619) and HCT-116 colon carcinoma (ATCC Cat. #CCL-247).
(§3) The carcinoma cells are trypsinized and counted. The cells (3000-8000 count) are added to each well of a 96-well CytoStar tissue culture treated scintillating microplate (Amersham #RPNQO160) in complete medium (100 μL) and the plate is then incubated in complete medium for 24 hrs at 37° C. in an inert atmosphere containing 5% CO2.
(§4) Test compound (1 μL) in 100% DMSO is added to the plate test-wells with DMSO only added to control-wells. The plate is incubated in complete medium for a second 24 hr period at 37° C. in an atmosphere containing 5% CO2.
(§5) An aliquot of a solution of Methyl ^14C-thymidine (56 mC/mmol) (NEN #NEC568 or Amersham #CFA532) and complete medium (20 uL to provide 0.2 μCi/well) is then added to each well and the plate is incubated for a third 24 hr period at 37° C. in an atmosphere containing 5% CO2.
(§6) The plate contents are then discarded, the plate is washed twice with PBS (200 μL) and then PBS (200 μL) is added to each well. The plate is sealed and the degree of methyl ^14C-thymidine incorporation is quantified on a Packard Top Count.
(§7) For a series of test concentrations, the IC50 was derived by graphing percent inhibition against the log of the concentrations tested for a given compound with results shown in Table 2.

VEGF-R2 kinase domain = biological target: T1, VEGF-R2 kinase domain (Rattus norvegicus, UniProt O08775); assay: VEGF-R2 screening assay (33P-ATP FlashPlate kinase assay); type: biochemical; details: single test concentration 100 μM; read-out: VEGF-R2 percent inhibition
T1 construct: polyhistidine (N)
T1 sequence (O08775 786-1343): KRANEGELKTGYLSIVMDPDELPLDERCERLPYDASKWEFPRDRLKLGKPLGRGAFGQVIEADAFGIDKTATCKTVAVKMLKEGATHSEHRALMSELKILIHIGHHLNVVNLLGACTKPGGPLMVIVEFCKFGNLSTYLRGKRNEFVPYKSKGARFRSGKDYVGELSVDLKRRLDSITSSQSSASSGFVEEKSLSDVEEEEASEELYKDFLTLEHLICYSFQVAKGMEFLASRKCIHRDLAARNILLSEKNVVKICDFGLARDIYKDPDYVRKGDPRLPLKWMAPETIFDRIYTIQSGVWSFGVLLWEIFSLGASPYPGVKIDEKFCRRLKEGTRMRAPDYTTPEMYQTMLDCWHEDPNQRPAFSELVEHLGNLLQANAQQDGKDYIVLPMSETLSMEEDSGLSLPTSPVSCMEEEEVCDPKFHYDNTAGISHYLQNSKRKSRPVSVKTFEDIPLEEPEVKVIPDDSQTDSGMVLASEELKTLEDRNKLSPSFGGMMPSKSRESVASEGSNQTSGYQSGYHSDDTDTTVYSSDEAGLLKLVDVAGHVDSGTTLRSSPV
Experimental: (§8) 70 μL of the kinase reaction mixture was dispensed into the well of a streptavidin coated FlashPlate™ (Cat. # SMP103, NEN, Boston, Mass.).
(§9) Test compound stock in 100% DMSO (1 μL) was added to the wells resulting in a final concentration of 1% DMSO in the reaction with a 100 μL final reaction volume. Each enzyme was diluted in 50 mM Tris-HCl pH=8.0, 0.1% BSA and 30 μL was added to each well to initiate the reaction. The reaction was incubated for one hour at 30° C. At the end of the 1 hr incubation, the reaction was terminated by aspirating the mixture from the plate and washing the wells twice with PBS containing 100 mM EDTA. The biotinylated peptide substrate became immobilized on the Flashplate™ and the incorporation of ^33P-γ-ATP was measured by reading the plate on a scintillation counter. Inhibition of the enzymatic activity was measured by observing a reduced amount of ^33P-γ-ATP incorporated into the immobilized peptide.
The assay used 150 ng of the N-terminal biotinylated peptide biotin-[…]-amide (VEGF-R2) per well.
(§10) A maximum and minimum signal for the assay was determined on each plate. The percent inhibition of a test compound was calculated according to the formula: [formula]

Aurora-A = biological target: T2, Aurora-A (Mus musculus, UniProt P97477); assay: Aurora-A screening assay (33P-ATP FlashPlate kinase assay); type: biochemical, murine; details: for inhibition at 100 µM: single test concentration 100 μM, read-out: Aurora-A percent inhibition
T2 construct: followed by the full length protein encoding the murine Aurora-A; polyhistidine (N); made in house; host or cells: Sf9 insect cells
T2 sequence (P97477 1-395): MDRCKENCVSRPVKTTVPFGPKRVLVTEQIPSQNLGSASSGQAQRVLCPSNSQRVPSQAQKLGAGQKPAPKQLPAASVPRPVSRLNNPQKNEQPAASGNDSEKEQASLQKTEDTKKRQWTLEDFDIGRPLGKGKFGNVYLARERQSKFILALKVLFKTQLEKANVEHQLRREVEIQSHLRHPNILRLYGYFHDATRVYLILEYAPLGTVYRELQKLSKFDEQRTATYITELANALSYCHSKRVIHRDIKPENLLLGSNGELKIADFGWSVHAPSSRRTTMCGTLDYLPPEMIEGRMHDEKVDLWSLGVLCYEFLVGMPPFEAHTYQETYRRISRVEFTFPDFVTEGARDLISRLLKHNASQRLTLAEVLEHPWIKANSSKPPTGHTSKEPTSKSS
Experimental: as §8, §9
Aurora-A is a fusion protein containing a polyhistidine tag at the N terminus followed by the full length protein encoding the murine Aurora-A (Accession number GB BC014711) expressed and purified from sf9 insect cells. The assay used 400 ng of the N-terminal biotinylated peptide biotin-[…]-amide (Aurora-A) per well.
as §10

[1] = system: HeLa cervical adenocarcinoma; assay: Cell proliferation inhibition assay (14C-thymidine incorporation), HeLa; type: cell-based; details: Homo sapiens
From the text: as §1, §2, §3, §4, §5, §6, §7

A375 malignant melanoma = assay: Cell proliferation inhibition assay (14C-thymidine incorporation), A375; type: cell-based; details: Homo sapiens, A-375
From the text: as §1, §2, §3, §4, §5, §6, §7

| IC50 (HCT-116 colon carcinoma) [µM] | inhibition at 100 µM (VEGF-R2 kinase domain) [%] | IC50 (Aurora-A; 10 μM ATP) [µM] | IC50 [1] [µM] | IC50 (A375 malignant melanoma) [µM] | inhibition at 100 µM (Aurora-A) [%] | Compound |
| --- | --- | --- | --- | --- | --- | --- |
| > 10 | 62 | 9.35 | 34.8 | 34.4 |  | CC(C)(C)OC(=O)n1c(-c2cccc3c2C(=O)NC3)cc2cc(O)ccc21 [Cpd 28, 5-hydroxy-2-(3-oxo-2,3-dihydro-1H-isoindol-4-yl)-indole-1-carboxylic acid tert-butyl ester] |
| > 1 | 63 |  | 14.6 | 4.14 | 58 | CC(C)(C)OC(=O)n1c(-c2cccc3c2C(=O)NC3)cc2cc(OCCN3CCCCC3)ccc21 [Cpd 29, 2-(3-oxo-2,3-dihydro-1H-isoindol-4-yl)-5-(2-piperidin-1-yl-ethoxy)-indole-1-carboxylic acid tert-butyl ester] |
| 17 | 65 |  | 20.3 | 5.31 | 57 | CC(C)(C)OC(=O)n1c(-c2cccc3c2C(=O)NC3)cc2cc(OCCN3CCOCC3)ccc21 [Cpd 30, 5-(2-morpholin-4-yl-ethoxy)-2-(3-oxo-2,3-dihydro-1H-isoindol-4-yl)-indole-1-carboxylic acid tert-butyl ester] |
| 39.5 | 17 |  | 44.3 | 39.6 | 40 | COc1cc2c(c(-c3cc4cc(OC)ccc4n3C(=O)OC(C)(C)C)c1)C(=O)NC2 [Cpd 31, 5-Methoxy-2-(6-methoxy-3-oxo-2,3-dihydro-1H-isoindol-4-yl)-indole-1-carboxylic acid tert-butyl ester] |

Source: patent US20070161648A1, “Substituted dihydro-isoindolones useful in treating kinase disorders” (priority 2005, published 2007)
